Results published in patent US20110313004A1, “DEUTERATED PYRIDINONES” (CONCERT PHARMACEUTICALS, INC., priority 2008, published 2011).

assay: Storage stability of the isolated compound at about −20° C.; format: physicochemical; conditions: storage for approximately 2 weeks at about −20° C.
Description: Compound 139 was synthesized in the same manner as Compound 151 with the exception that 4-fluoro-2,3,5,6-d4-aniline (98% atom % D, CDN Isotopes) was used in place of D p-toluidine-d9 in step 1. ^1H NMR (CDCl3): δ 7.44 (dd, J=2.5, 9.6, 1H), 7.31 (d, J=2.5, 1H), 6.67 (d, J=9.3, 1H). MS (M+H): 226.1.
Compound 161 was synthesized in the same manner as Compound 101 (Example 1, Scheme 6, steps 1-3), except that 4-chloro-2,3,5,6-d4-aniline (98% atom % D, CDN Isotopes) was used in place of aniline in step 1. MS (M+H): 242.1.
A solution of (ethyl carbonic) 1-(4-(methoxy-d3)phenyl-d4)-6-oxo-1,6-dihydropyridine-3-carboxylic anhydride 27 (464 mg, approximately. 1.43 mmol) in THF (14.8 mL) was cooled to 10° C. and NaBD4 (98 atom % D, Cambridge Isotopes Laboratories) (295 mg, 7.01 mmol) was added. To the resulting slurry was added MeOD (1.42 mL) via syringe pump at a rate of 0.015 mL/min. Upon completion, the reaction was diluted with MeOD and concentrated nearly to dryness on a rotary evaporator. This process was repeated twice. The resulting solid was suspended in CH2Cl2, silica gel was added, the slurry concentrated to dryness in vacuo, and the resulting solid was added to the top of a silica gel column. Purification via column chromatography on an ISCO instrument (0 to 10% MeOH in CH2Cl2) provided impure final product. A further purification by ISCO (50 to 100% EtOAc in hexanes) followed by a preparatory HPLC purification afforded 116 mg of the final product 156 in approximately 85% purity. ^1H NMR (CDCl3): δ 7.43 (dd, J=2.7, 9.5, 1H), 7.31 (dd, J=0.6, 2.5, 1H), 6.66 (dd, J=0.6, 9.5, 1H). MS (M+H): 241.1.

SMILES | condition of compound after storage
[2H]c1c([2H])c(-n2cc(C([2H])([2H])O)ccc2=O)c([2H])c([2H])c1F [Compound 139, 1-(4-Fluorophenyl-d4)-5-(hydroxy(methyl-d2))pyridin-2(1H)-one] | decomposed
[2H]c1c([2H])c(-n2cc(C([2H])([2H])O)ccc2=O)c([2H])c([2H])c1OC([2H])([2H])[2H] [Compound 156, 5-(Hydroxyl(methyl-d2))-1-(4-(methoxy-d3)phenyl-d4)pyridin-2(1H)-one] | decomposed
[2H]c1c([2H])c(-n2cc(C([2H])([2H])O)ccc2=O)c([2H])c([2H])c1Cl [Compound 161, 1-(4-Chlorophenyl-d4)-5-(hydroxy(methyl-d2))-pyridin-2(1H)-one] | decomposed
